This is an account of results in patent publication US20080220103A1, “METHOD FOR TREATING/CONTROLLING/KILLING FUNGI AND BACTERIA ON LIVING ANIMALS” (priority 2005, published 2008).

Values after ≈ are worked out from the molar mass of the structure shown. Values joined by “and” are separate entries in the source; they are usually repeats but may differ in a detail not shown here. Equal values may be shown once. Read-outs that look alike come from different tables or passages of the source. A value given as a limit tells only on which side of the number the result lay.

In one test the test system is S. aureus. As to the kind of experiment: MIC, CLSI M7-A7, Mueller-Hinton. Format: cell-based, Staphylococcus aureus. The following applies: for MIC Range / MIC50 / MIC90: S. aureus. The procedure:
(§1) Minimum Inhibitory Concentration (MIC): Minimum inhibitory concentrations of synthetic and semisynthetic and natural products against dermatophytes were determined using a modification of the Clinical Laboratory Standards Institute (CLSI, formerly National Committee of Clinical Laboratory Standards, NCCLS) M38A standard method for dermatophytes, while MIC of these agents against Candida species were determined using the CLSI M27-A2 methodology. The method used to determine the MIC against bacteria was based on the CLSI document M7-A7.
For bacterial species, the medium used to evaluate the antibacterial activity of agents and essential oils was Mueller-Hinton (Oxoid Ltd., Basingstoke, Hampshire, England). Serial dilutions of miconazole, terbinafine, and tolnaftate were prepared in a range of 0.125-64 μg/ml and serial dilutions of tea tree oil were prepared in a range of 0.0078-4 μg/ml, while those for the rest of the essential oils were prepared in a range 0.031-16 μg/ml.

The subject of test [1] is T. mentagrophytes. Briefly: MIC, modified CLSI M38A broth dilution. The format is cell-based, Trichophyton mentagrophytes. To be noted: for MIC Range / MIC50 / MIC90: T. mentagrophytes, n = 6; for MIC / MIC50 / MIC90: Trichophyton mentagrophytes. The protocol:
as §1
For dermatophytes, serial dilutions of terbinafine, tolnaftate were prepared in a range of 0.004-2 μg/ml, while for miconazole concentrations ranged between 0.015-8 μg/ml. Finally, for essential oils, the concentrations tested were between 0.03-16 μg/ml. The only exception was tea tree oil where dilutions were prepared in a range of 0.0078-4 μg/ml. The MIC was read at 4 days post inoculation and defined as the lowest concentration of an agent to inhibit 80% of fungal growth as compared to the growth control (Table 2).
Background: Dilution methods test growth across graded concentrations, often in twofold steps.

The next test deals with All dermatophytes. Briefly: Minimum fungicidal concentration, pooled dermatophytes. The format is cell-based, E. floccosum, T. rubrum, T. mentagrophytes. The protocol:
Minimum fungicidal concentration (MFC): The minimum fungicidal concentrations of various agents were determined using the technique described by Canton et al. (Antimicrob Agents Chemother. 2004 8:2477-82). In that method, fungal conidia were collected following growth on potato dextrose agar (PDA) plates and were used to inoculate 96-well plates containing different concentrations of agents. Following incubation at 35° C. for 4 days (for dermatophytes) or 24 hours (for yeast), wells showing no visible growth were cultured to determine the MFC (defined as the lowest concentration of a given agent that kills>99.999% of fungal conidia or spores). The MFC value represents the level of the agent at which spores or conidia were killed.
In the following Tables, MIC50 and MIC90 are defined as the minimal concentrations of a compound that can inhibit 50% and 90% of the tested organisms, respectively.

For test [2], the system named is T. mentagrophytes. Briefly: Post-treatment insole biopsy disc assay. The format is cell-based, Trichophyton mentagrophytes. The source says: Based on the above experiments, our disc biopsy assay employed Dr. Scholl's insole and leather discs as the optimal substrates representing materials used in shoes, and 30% isopropanol as the optimal vehicle to dissolve the agents to be tested in pre-treatment and post-treatment studies.
Two types of disc biopsy assays were used to evaluate the ability of different synthetic and natural substances to disinfect shoe material: (a) Pre-treatment assay: where discs were pre-treated with antifungals first and then infected with T. mentagrophytes, and (b) Post-treatment assay: where discs were first infected with T. mentagrophytes, then treated with drugs. These assays reveal the ability of different agents to prevent and treat shoe fungal contamination, respectively.
Post-treatment assays: To evaluate the ability of various agents to treat infected shoes, PDA plates were prepared on which […] T. mentagrophytes cells were evenly spread on their surface. Next, untreated biopsy discs were placed on these PDA plates and incubated for 4 days at 30° C. Incubating the biopsy discs in this manner allowed the fungi to invade the discs. Infected discs were picked and post-treated with different agents by spraying. Post-treated discs were allowed to air dry and were then placed on fresh, uninoculated PDA plates and incubated for 4 additional days at 30° C. Incubation of the discs under these conditions allows any fungi that are not killed by the sprayed agent to grow. In other words, agents that are effective in the treatment of shoe material will not show any fungal growth around the disc biopsy (FIG. 1C). In contrast, discs treated with ineffective agents will show fungal growth emanating from them (FIG. 1D). Diameter of the growth zone (GZD) was determined as a measure of the activity of the agent tested.

Test [3] deals with T. mentagrophytes. As to the kind of experiment: Scanning electron microscopy of treated discs. To be noted: for SEM: fungal growth on insole, post-contamination treatment / SEM: fungal growth on insole, pretreatment: insole biopsy disc; for SEM: fungal growth on leather, pretreatment: leather biopsy disc. Format: cell-based, Trichophyton mentagrophytes. The procedure: Scanning electron microscopy (SEM) was used to monitor the ability of agents to eradicate fungal growth on shoe insoles or leather biopsy discs. Pre- and post-treated discs were processed for SEM by the method of Chandra et al. One set of discs was used as a control in which no drug pre- or post-treatment was performed. In addition, one set of biopsy discs was used as blank where no fungal cells or drug were added. Following treatment, discs were fixed with 2% glutaraldehyde for 2 h, and then washed with sodium cacodylate buffer (three times for 10 minutes each). The discs were then treated with 1% osmium tetraoxide (for 1 h at 4° C.) followed by a series of washing with sodium cacodylate buffer, followed by a two times washing with distilled water. Next, the discs were treated with 1% tannic acid washed three times with distilled water, and followed by 1% uranyl acetate with two water washings. The samples were then dehydrated through a series of ethanol solutions (range from 25% (vol/vol) ethanol in distilled water to absolute ethanol). Prepared samples were then sputter coated with Au/Pd (60/40) and viewed with Amray 1000B scanning electron microscope.

[4] abbreviates: Staphylococcus aureus, S. aureus strain 730, 80% inhibition, 16 h, read-out: MIC.
[5] abbreviates: Staphylococcus aureus, S. aureus strain 732, read-out: MIC.
[6] abbreviates: All dermatophytes, n = 18, read-out: MFC, row MIC50.
Setting [7] is: All dermatophytes, n = 18, read-out: MFC, row MIC90.

Take `Clc1ccc(COC(Cn2ccnc2)c2ccc(Cl)cc2Cl)c(Cl)c1` (stereo not shown) [Miconazole, miconazole]: the MIC in the test with S. aureus (S. aureus strain 733) is 2 µg/mL (≈ 4.81 µM); with S. aureus (S. aureus strain 734) it was 2 µg/mL (≈ 4.81 µM); against S. aureus (S. aureus strain 8470), 2 µg/mL (≈ 4.81 µM); with S. aureus (setting [4]), 2 µg/mL (≈ 4.81 µM); with S. aureus (setting [5]) it was 2 µg/mL (≈ 4.81 µM); in the test with T. mentagrophytes [1] (T. mentagrophytes strain 1720), 0.03 µg/mL (≈ 0.0721 µM). The MIC was 0.25 µg/mL (≈ 0.601 µM) in the test on T. mentagrophytes [1] (T. mentagrophytes strain 2124); 0.25 µg/mL (≈ 0.601 µM) against T. mentagrophytes [1] (T. mentagrophytes strain 2125); 0.015 µg/mL (≈ 0.036 µM) in the test on T. mentagrophytes [1] (T. mentagrophytes strain 2126); 0.25 µg/mL (≈ 0.601 µM) against T. mentagrophytes [1] (T. mentagrophytes strain 2127); 0.125 µg/mL (≈ 0.3 µM) against T. mentagrophytes [1] (T. mentagrophytes strain 2128). Besides, the results for the “MIC Range” value with S. aureus (n = 6) and with T. mentagrophytes [1] were 2 µg/mL (≈ 4.81 µM) and 0.015 to 0.25 µg/mL, respectively. The same molecule registered an MIC50 with S. aureus (Staphylococcus aureus) of 2 µg/mL (≈ 4.81 µM). For the same molecule, the MIC90 with S. aureus (Staphylococcus aureus) was found to be 2 µg/mL (≈ 4.81 µM). Moreover, the MFC is 8 µg/mL (≈ 19.2 µM) in the test with All dermatophytes (setting [6]); above 8 µg/mL in the test on All dermatophytes (setting [7]); at least 8 µg/mL in the test with All dermatophytes (all T. mentagrophytes isolates and the majority of T. rubrum and E. floccosum isolates, read-out: MFC).

With `CN(C/C=C/C#CC(C)(C)C)Cc1cccc2ccccc12` [Terbinafine, terbinafine], the MIC against S. aureus (S. aureus strain 733) is above 64 µg/mL; against S. aureus (S. aureus strain 734), above 64 µg/mL; in the test with S. aureus (S. aureus strain 8470), above 64 µg/mL; in the test on S. aureus (setting [4]), above 64 µg/mL; in the test on S. aureus (setting [5]) it was above 64 µg/mL; against T. mentagrophytes [1] (T. mentagrophytes strain 1720) it was 0.004 µg/mL (≈ 0.0137 µM). The MIC in the test with T. mentagrophytes [1] (T. mentagrophytes strain 2124) was found to be 0.03 µg/mL (≈ 0.103 µM); with T. mentagrophytes [1] (T. mentagrophytes strain 2125) it was 0.03 µg/mL (≈ 0.103 µM); in the test on T. mentagrophytes [1] (T. mentagrophytes strain 2126), 0.004 µg/mL (≈ 0.0137 µM); with T. mentagrophytes [1] (T. mentagrophytes strain 2127), 0.03 µg/mL (≈ 0.103 µM); in the test on T. mentagrophytes [1] (T. mentagrophytes strain 2128), 0.03 µg/mL (≈ 0.103 µM). Further, the “MIC Range” value is above 64 µg/mL with S. aureus (n = 6) and 0.004 to 0.03 µg/mL against T. mentagrophytes [1]. Also, the results for the MIC50 with S. aureus (Staphylococcus aureus) and against T. mentagrophytes [1] were above 64 µg/mL and 0.03 µg/mL (≈ 0.103 µM), respectively. The MIC90 is above 64 µg/mL in the test with S. aureus (Staphylococcus aureus) and 0.03 µg/mL (≈ 0.103 µM) in the test on T. mentagrophytes [1]. In addition, in the test with T. mentagrophytes [2] (1% spray in 30% isopropanol), the “Insoles Post-contamination Treatment (GZD, growth zone diameter)” value is recorded as 0 mm. The “MFC Range” value in the test on All dermatophytes (All dermatophytes, n = 18) lay within 0.03 to 0.125 µg/mL. Further, the values for the MFC with All dermatophytes (setting [6]) and in the test on All dermatophytes (setting [7]) were 0.06 µg/mL (≈ 0.206 µM) and 0.125 µg/mL (≈ 0.429 µM), respectively. In addition, the “SEM: fungal growth on insole, post-contamination treatment” value in the test on T. mentagrophytes [3] was “complete clearance of fungal growth”. Besides, the “SEM: fungal growth on insole, pretreatment” value with T. mentagrophytes [3] was “completely eradicated fungal growth”. Further, in the test on T. mentagrophytes [3], the “SEM: fungal growth on leather, pretreatment” value was “completely eradicated fungal growth”.

With `Cc1cccc(N(C)C(=S)Oc2ccc3ccccc3c2)c1` [Tolnaftate, tolnaftate], the minimal inhibitory concentration (MIC) against S. aureus (S. aureus strain 733) is above 64 µg/mL; in the test with S. aureus (S. aureus strain 734), above 64 µg/mL; against S. aureus (S. aureus strain 8470), above 64 µg/mL; in the test on S. aureus (setting [4]), above 64 µg/mL; in the test with S. aureus (setting [5]), above 64 µg/mL; against T. mentagrophytes [1] (T. mentagrophytes strain 1720), 0.008 µg/mL (≈ 0.026 µM). Besides, the MIC came to 0.06 µg/mL (≈ 0.195 µM) in the test with T. mentagrophytes [1] (T. mentagrophytes strain 2124); 0.06 µg/mL (≈ 0.195 µM) against T. mentagrophytes [1] (T. mentagrophytes strain 2125); 0.004 µg/mL (≈ 0.013 µM) against T. mentagrophytes [1] (T. mentagrophytes strain 2126); 0.06 µg/mL (≈ 0.195 µM) in the test on T. mentagrophytes [1] (T. mentagrophytes strain 2127); 0.125 µg/mL (≈ 0.407 µM) against T. mentagrophytes [1] (T. mentagrophytes strain 2128). The “MIC Range” value was above 64 µg/mL in the test on S. aureus (n = 6 printed, listed as TOLNAFTATE); above 64 µg/mL with S. aureus (n = 6 printed, listed as tolnaftate); 0.008 to 0.125 µg/mL against T. mentagrophytes [1]. Moreover, the MIC50 in the test with S. aureus (Staphylococcus aureus) is above 64 µg/mL; against T. mentagrophytes [1] it was 0.06 µg/mL (≈ 0.195 µM). For the same molecule, the MIC90 is above 64 µg/mL with S. aureus (Staphylococcus aureus) and 0.125 µg/mL (≈ 0.407 µM) against T. mentagrophytes [1]. Moreover, the “Insoles Post-contamination Treatment (GZD, growth zone diameter)” value amounted to 8 mm in the test with T. mentagrophytes [2] (1% spray in 30% isopropanol) and 10 mm in the test with T. mentagrophytes [2] (2% spray in 30% isopropanol). In addition, the “fungal regrowth from established contamination” value with T. mentagrophytes [2] (4% (w/v) in acetone, insole disc) is recorded as “no fungal regrowth was observed”. Also, the “MFC Range” value against All dermatophytes (All dermatophytes, n = 18) was 0.06 to 1.0 µg/mL and 0.06 to 1 µg/mL; against All dermatophytes (All dermatophytes, n = 18, listed as tolnaftate), 0.06 to 0.125 µg/mL. Further, the MFC came to 0.125 µg/mL (≈ 0.407 µM) in the test on All dermatophytes (setting [6]) and 1 µg/mL (≈ 3.25 µM) in the test with All dermatophytes (setting [7]). Further, the “SEM: fungal growth on insole, post-contamination treatment” value in the test on T. mentagrophytes [3] is given as “minimally effective”. For the same molecule, the “SEM: fungal growth on insole, pretreatment” value with T. mentagrophytes [3] is given as “completely eradicated fungal growth”. Further, the “SEM: fungal growth on leather, pretreatment” value with T. mentagrophytes [3] is reported as “did not completely eradicate dermatophyte growth”.

As a reminder, the MIC is the lowest concentration that inhibits growth of the organism. Usually MIC50 stands for the lowest concentration that inhibits either 50% of growth or 50% of the strains tested, depending on the study. High values mean weaker potency, low ones greater potency. Usually MIC90 stands for an inhibitory concentration at the 90% level, which refers to growth in some studies and to a panel of isolates in others. Higher therefore signals lower susceptibility. In general, MFC refers to the lowest tested concentration that kills the fungus rather than only halting it.
